Test results: PubChem BioAssay (NCI)
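Compound exposure: 48 hours, 5 concentrations, 96-well plates. TGI is the concentration that stops growth completely.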

Assays:
Experiment in all cases: DTP human tumour cell line panel, 48 h
HOP-62 NSCLC = system: HOP-62 NSCLC
MDA-MB-435 = system: MDA-MB-435
HCT-116 colon = system: HCT-116 colon
HOP-92 NSCLC = system: HOP-92 NSCLC
SN12C renal = system: SN12C renal
NCI/ADR-RES ovarian = system: NCI/ADR-RES ovarian
MCF7 breast = system: MCF7 breast
RPMI-8226 leukemia = system: RPMI-8226 leukemia
SF-295 CNS = system: SF-295 CNS
UACC-62 melanoma = system: UACC-62 melanoma
MDA-MB-231 breast = system: MDA-MB-231 breast
COLO 205 colon = system: COLO 205 colon
LOX IMVI melanoma = system: LOX IMVI melanoma
SR leukemia = system: SR leukemia
KM12 colon = system: KM12 colon
MALME-3M melanoma = system: MALME-3M melanoma
CAKI-1 renal = system: CAKI-1 renal
HCC-2998 colon = system: HCC-2998 colon
NCI-H23 lung = system: NCI-H23 lung
HL-60(TB) leukemia = system: HL-60(TB) leukemia
SF-539 CNS = system: SF-539 CNS
NCI-H522 lung = system: NCI-H522 lung
EKVX NSCLC = system: EKVX NSCLC
T-47D breast = system: T-47D breast
U251 CNS = system: U251 CNS
SK-OV-3 ovarian = system: SK-OV-3 ovarian
SF-268 CNS = system: SF-268 CNS
UACC-257 melanoma = system: UACC-257 melanoma
HS 578T breast = system: HS 578T breast
786-0 renal = system: 786-0 renal
HCT-15 colon = system: HCT-15 colon
OVCAR-8 ovarian = system: OVCAR-8 ovarian
SK-MEL-28 melanoma = system: SK-MEL-28 melanoma
RXF 393 renal = system: RXF 393 renal
A498 renal = system: A498 renal
DU-145 prostate = system: DU-145 prostate
OVCAR-3 ovarian = system: OVCAR-3 ovarian
SK-MEL-5 melanoma = system: SK-MEL-5 melanoma
A549 NSCLC = system: A549 NSCLC
K-562 leukemia = system: K-562 leukemia
NCI-H460 lung = system: NCI-H460 lung
TK-10 renal = system: TK-10 renal
ACHN renal = system: ACHN renal
UO-31 renal = system: UO-31 renal
SW-620 colon = system: SW-620 colon
MOLT-4 leukemia = system: MOLT-4 leukemia
MDA-N = system: MDA-N
SK-MEL-2 melanoma = system: SK-MEL-2 melanoma
SNB-75 CNS = system: SNB-75 CNS
NCI-H226 lung = system: NCI-H226 lung
HT29 colon = system: HT29 colon
SNB-19 CNS = system: SNB-19 CNS
PC-3 prostate = system: PC-3 prostate
M14 melanoma = system: M14 melanoma
CCRF-CEM leukemia = system: CCRF-CEM leukemia
OVCAR-5 ovarian = system: OVCAR-5 ovarian
IGROV1 ovarian = system: IGROV1 ovarian
OVCAR-4 ovarian = system: OVCAR-4 ovarian
BT-549 breast = system: BT-549 breast

## O=C1OC(C2=CC(=O)c3ccccc3C2=O)C(Cl)=C1Cl (stereo not drawn)
HOP-62 NSCLC
  TGI: > 100 µM
MDA-MB-435
  TGI: > 100 µM
HCT-116 colon
  TGI: > 100 µM
HOP-92 NSCLC
  TGI: > 100 µM
SN12C renal
  TGI: 59 µM
NCI/ADR-RES ovarian
  TGI: > 100 µM
MCF7 breast
  TGI: 44.8 µM
RPMI-8226 leukemia
  TGI: 47.3 µM
SF-295 CNS
  TGI: > 100 µM
UACC-62 melanoma
  TGI: 39.5 µM
MDA-MB-231 breast
  TGI: 36 µM
COLO 205 colon
  TGI: > 100 µM
LOX IMVI melanoma
  TGI: 49.9 µM
SR leukemia
  TGI: 70.3 µM
KM12 colon
  TGI: > 100 µM
MALME-3M melanoma
  TGI: 57.9 µM
CAKI-1 renal
  TGI: > 100 µM
HCC-2998 colon
  TGI: 61.3 µM
NCI-H23 lung
  TGI: 59.4 µM
HL-60(TB) leukemia
  TGI: > 100 µM
SF-539 CNS
  TGI: 72.7 µM
NCI-H522 lung
  TGI: 39.3 µM
EKVX NSCLC
  TGI: > 100 µM
T-47D breast
  TGI: 83.7 µM
U251 CNS
  TGI: 86 µM
SK-OV-3 ovarian
  TGI: > 100 µM
SF-268 CNS
  TGI: 79.2 µM
UACC-257 melanoma
  TGI: > 100 µM
HS 578T breast
  TGI: > 100 µM
786-0 renal
  TGI: 43.2 µM
HCT-15 colon
  TGI: 41 µM
OVCAR-8 ovarian
  TGI: 29.8 µM
SK-MEL-28 melanoma
  TGI: 96.2 µM
RXF 393 renal
  TGI: 52.5 µM
A498 renal
  TGI: > 100 µM
DU-145 prostate
  TGI: > 100 µM
OVCAR-3 ovarian
  TGI: > 100 µM
SK-MEL-5 melanoma
  TGI: > 100 µM
A549 NSCLC
  TGI: > 100 µM
K-562 leukemia
  TGI: 83.3 µM
NCI-H460 lung
  TGI: > 100 µM
TK-10 renal
  TGI: > 100 µM
ACHN renal
  TGI: 33.6 µM
UO-31 renal
  TGI: 31.8 µM
SW-620 colon
  TGI: 94.1 µM
MOLT-4 leukemia
  TGI: > 100 µM
MDA-N
  TGI: > 100 µM
SK-MEL-2 melanoma
  TGI: 35.4 µM
SNB-75 CNS
  TGI: > 100 µM
NCI-H226 lung
  TGI: 95.3 µM
HT29 colon
  TGI: > 100 µM
SNB-19 CNS
  TGI: > 100 µM
PC-3 prostate
  TGI: 75.5 µM
M14 melanoma
  TGI: > 100 µM
CCRF-CEM leukemia
  TGI: 50.9 µM
OVCAR-5 ovarian
  TGI: > 100 µM

## COc1ccc(C2CC(=O)CC(c3ccc(OC)cc3)C23C(=O)NC(=S)NC3=O)cc1 (stereo not drawn)
HOP-62 NSCLC
  TGI: > 100 µM
MDA-MB-435
  TGI: > 100 µM
HCT-116 colon
  TGI: > 100 µM
HOP-92 NSCLC
  TGI: > 100 µM
SN12C renal
  TGI: > 100 µM
NCI/ADR-RES ovarian
  TGI: > 100 µM
MCF7 breast
  TGI: > 100 µM
IGROV1 ovarian
  TGI: > 100 µM
SF-295 CNS
  TGI: > 100 µM
UACC-62 melanoma
  TGI: > 100 µM
OVCAR-4 ovarian
  TGI: > 100 µM
COLO 205 colon
  TGI: > 100 µM
LOX IMVI melanoma
  TGI: > 100 µM
SR leukemia
  TGI: > 100 µM
KM12 colon
  TGI: > 100 µM
CAKI-1 renal
  TGI: > 100 µM
HCC-2998 colon
  TGI: > 100 µM
NCI-H23 lung
  TGI: > 100 µM
HL-60(TB) leukemia
  TGI: > 100 µM
SF-539 CNS
  TGI: > 100 µM
NCI-H522 lung
  TGI: > 100 µM
EKVX NSCLC
  TGI: > 100 µM
T-47D breast
  TGI: > 100 µM
U251 CNS
  TGI: > 100 µM
BT-549 breast
  TGI: > 100 µM
SF-268 CNS
  TGI: > 100 µM
UACC-257 melanoma
  TGI: > 100 µM
786-0 renal
  TGI: > 100 µM
HCT-15 colon
  TGI: > 100 µM
OVCAR-8 ovarian
  TGI: > 100 µM
SK-MEL-28 melanoma
  TGI: > 100 µM
RXF 393 renal
  TGI: > 100 µM
DU-145 prostate
  TGI: > 100 µM
OVCAR-3 ovarian
  TGI: > 100 µM
SK-MEL-5 melanoma
  TGI: > 100 µM
K-562 leukemia
  TGI: > 100 µM
NCI-H460 lung
  TGI: > 100 µM
TK-10 renal
  TGI: > 100 µM
ACHN renal
  TGI: > 100 µM
UO-31 renal
  TGI: > 100 µM
SW-620 colon
  TGI: > 100 µM
MOLT-4 leukemia
  TGI: > 100 µM
MDA-N
  TGI: > 100 µM
SK-MEL-2 melanoma
  TGI: > 100 µM
SNB-75 CNS
  TGI: > 100 µM
NCI-H226 lung
  TGI: > 100 µM
HT29 colon
  TGI: > 100 µM
SNB-19 CNS
  TGI: > 100 µM
PC-3 prostate
  TGI: > 100 µM
M14 melanoma
  TGI: > 100 µM
CCRF-CEM leukemia
  TGI: > 100 µM
OVCAR-5 ovarian
  TGI: > 100 µM
